Data: the Kinase Knowledgebase extract (Sharma et al. 2016)

The molecules below were run against EGFR (human) (UniProt P00533). Settings: hl-60.
Sequence of EGFR (human) (P00533 whole entry, looked up): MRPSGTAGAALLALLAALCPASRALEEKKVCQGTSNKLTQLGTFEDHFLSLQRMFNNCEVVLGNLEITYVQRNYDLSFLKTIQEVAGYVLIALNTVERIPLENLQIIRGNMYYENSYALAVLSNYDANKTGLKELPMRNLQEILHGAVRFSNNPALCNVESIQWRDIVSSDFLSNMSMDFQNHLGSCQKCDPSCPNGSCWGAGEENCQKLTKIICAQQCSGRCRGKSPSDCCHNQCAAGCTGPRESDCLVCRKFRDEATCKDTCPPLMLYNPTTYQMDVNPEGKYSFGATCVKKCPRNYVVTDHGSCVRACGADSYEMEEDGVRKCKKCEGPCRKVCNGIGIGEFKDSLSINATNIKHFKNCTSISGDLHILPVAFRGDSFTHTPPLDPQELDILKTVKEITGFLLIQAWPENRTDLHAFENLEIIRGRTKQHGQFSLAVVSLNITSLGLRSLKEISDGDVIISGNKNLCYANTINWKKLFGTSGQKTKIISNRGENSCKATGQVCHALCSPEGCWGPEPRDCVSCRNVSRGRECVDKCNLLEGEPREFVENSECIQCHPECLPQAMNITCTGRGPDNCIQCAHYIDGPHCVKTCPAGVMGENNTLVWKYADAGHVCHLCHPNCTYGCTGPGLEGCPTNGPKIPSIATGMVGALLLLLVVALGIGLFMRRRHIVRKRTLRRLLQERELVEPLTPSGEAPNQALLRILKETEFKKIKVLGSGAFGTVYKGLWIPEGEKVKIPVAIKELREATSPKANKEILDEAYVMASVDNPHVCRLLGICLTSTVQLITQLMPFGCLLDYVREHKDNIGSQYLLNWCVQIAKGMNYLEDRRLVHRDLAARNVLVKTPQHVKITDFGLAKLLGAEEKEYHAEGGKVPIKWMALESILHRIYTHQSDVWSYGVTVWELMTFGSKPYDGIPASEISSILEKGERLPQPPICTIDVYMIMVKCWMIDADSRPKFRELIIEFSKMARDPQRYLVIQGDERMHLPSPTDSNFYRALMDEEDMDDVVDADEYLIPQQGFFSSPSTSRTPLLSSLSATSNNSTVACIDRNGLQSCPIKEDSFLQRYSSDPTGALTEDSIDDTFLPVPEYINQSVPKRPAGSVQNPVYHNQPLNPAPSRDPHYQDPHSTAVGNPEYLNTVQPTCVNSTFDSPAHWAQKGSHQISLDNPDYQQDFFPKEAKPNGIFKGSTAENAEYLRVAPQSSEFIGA

IC50 [µM] | Structure (SMILES)
> 100 | O=C(CCCCCC(=O)Nc1ccc(O)c(C(=O)Nc2cccc(F)c2)c1)NO
> 100 | O=C(CCCCCC(=O)Nc1ccc(O)c(C(=O)Nc2ccc(F)c(F)c2)c1)NO
> 100 | C#Cc1cccc(NC(=O)c2cccc(NC(=O)CCCCCC(=O)NO)c2)c1
> 100 | O=C(CCCCCC(=O)Nc1ccc(O)c(C(=O)Nc2ccc(Cl)c(Cl)c2)c1)NO
> 100 | O=C(CCCCCC(=O)Nc1ccc(O)c(C(=O)Nc2ccc(OCc3cccc(F)c3)c(Cl)c2)c1)NO
> 100 | O=C(CCCCCC(=O)Nc1ccc(O)c(C(=O)Nc2ccc(Cl)c(C(F)(F)F)c2)c1)NO
> 100 | C#Cc1cccc(NC(=O)c2cc(NC(=O)CCCCCC(=O)NO)ccc2O)c1
> 100 | O=C(CCCCCC(=O)Nc1ccc(O)c(C(=O)Nc2cccc(C(F)(F)F)c2)c1)NO
> 100 | O=C(CCCCCC(=O)Nc1ccc(O)c(C(=O)Nc2ccc(F)c(Cl)c2)c1)NO
> 100 | C#Cc1cccc(NC(=O)c2cc(NC(=O)CCCCCCC(=O)NO)ccc2O)c1
